Read-outs that look alike come from different tables or passages of the source.
Legend:
[1] = system: P. falciparum 3D7 (Pf3D7), CQ sensitive; assay: SYBR Green I growth inhibition assay, asynchronous P. falciparum 3D7 culture; type: cell-based, Plasmodium falciparum; settings: SYBR Green, mean of three experiments, NDR / No IC50 = no dose response
Text: (§1) Antimalarial activity of all the listed Pht analogues was initially assessed on asynchronous cultures of P. falciparum 3D7 (Pf3D7) clone using the SYBR Green assay. […] The mean IC50 values are based on three separate experiments (Table 1).
(§2) The laboratory-adapted P. falciparum strains 3D7 (Africa; CQ sensitive) and W2 (Africa; CQ resistant), were acquired from Malaria Research and Reference Reagent Resource Center (MR4) (Manassas, VA, USA) and maintained with type O +ve erythrocytes suspended in continuous complete culture medium as described. Complete culture media consisted of 10.43 g/litre of RPMI 1640-HEPES supplemented with 10% (vol/vol) human AB serum, 92.6 mg/litre L-glutamine, 50 mg/liter hypoxanthine, 2 g/litre sodium bicarbonate (Sigma-Aldrich, St. Louis, MO). Incubation of cultures was at 37 °C and maintained in a low oxygen atmosphere (5% O2, 5% CO2, 90% N). The levels of parasitemia in the cultures were maintained at between 2 and 10%, with 5% hematocrit. Media was changed after every 24 hours and parasitemia monitored every 48 hours. Synchronous cultures were prepared by sorbitol lysis. Stock solutions of the Pht, Pht analogues, and DHA were prepared in absolute dimethyl sulfoxide (DMSO) while CQ was prepared in distilled water. The prepared drug stock solutions were used immediately or stored at −80 °C for not longer than one month before use. Stock solutions were further diluted in serum free RPMI 1640 media (stock solution solvent final conc. 0.05%) before performing a 2-fold serial dilution to achieve dose ranges of 0.2 µM to 100 µM (Pht and derivatives), 7.8 to 2,000 nM (CQ) and 0.17 to 87.5 nM (DHA). 25 μL of the drug diluents were aliquoted into 96 well plates and used immediately. Alternatively, the stock solutions were diluted in distilled water, 2-fold serial dilution performed on a 96 well plate and allowed to air dry in a laminar flow hood after which dried plates were stored at 4 °C until use. SYBR Green I assay technique with additional modification was used for drug susceptibility testing of the parasites. Parasite cultures of >1% parasitemia were diluted to 1% parasitemia and 2% hematocrit and 200 μL were transferred onto drug pre-dosed plates and incubated at 37 °C for 90 hours, [40]. Drug exposure was terminated by freezing the drug plates at −80 °C for 24 hours after which lysis buffer containing (per liter) 100 mM Tris-HCl, 10 mM EDTA, 0.016% Saponin, 1.6% triton X-100 and 20X SYBR Green I dye was added and the sample incubated for 2 hours in the dark. Relative fluorescence units (RFU) were read using the Perkin Elmer Wallac 1420 fluorescence plate reader, with excitation and emission wavelengths of 485 nm and 535 nm respectively. The readouts values were aligned with corresponding drug doses and analysis performed by Graph-pad Prism software. The drug concentrations (x value) were transformed using X = Log[X] and plotted against the counts (y values) and the data analysed by non-linear regression (sigmoid dose-response/variable slope equation) to yield the IC50.

[2] = system: CQ resistant PfW2 strain; assay: SYBR Green I growth inhibition assay, P. falciparum W2 culture; type: cell-based; settings: Plasmodium falciparum
Text: as §1
as §2, with “Drug exposure was terminated by freezing the drug plates at −80 °C for 24 hours after which lysis buffer containing (per liter) 100 mM Tris-HCl, 10 mM EDTA, 0.016% Saponin, 1.6% triton X-100 and 20X SYBR Green I dye was added and the sample incubated for 2 hours in the dark.” left out

[3] = system: P. falciparum W2; assay: Fixed-ratio isobologram drug interaction assay with CQ/DHA, W2; type: cell-based, Plasmodium falciparum; settings: PfW2
Description: A modified fixed-ratio isobologram method was used to assess interaction between CQ/DHA and Pht analogues. Briefly, a total of 5 solutions containing fixed-ratio mixtures of Pht derivatives with either CQ or DHA were prepared in the following ratios: 1:1, 2:1, 3:2, 2:3, and 1:4. The starting concentrations for ten 2 fold-serial dilutions across the microtiter plate were assigned so that the IC50 of each drug would be in the 5th serial dilution of the plate. Each drug was tested alone and at fixed ratios of its IC50. The assessment of drug interaction was based on the calculation of the fractional inhibitory concentration (FIC) of two drugs in the […]. FIC was calculated for each association by dividing the IC50 of the drug in the combination by the IC50 of the drug alone.

[4] = MTT cytotoxicity assay in U937 cells; type: cell-based; settings: human; for selectivity ratio at 24 h: U937 cells (CC50) versus 3D7 parasites (IC50), read-out: selectivity index (SI); for CC50 at 24 h: U937 cells, MTT
Description: As a final step in the investigational pipeline, we determined the cytotoxic effect of the four active analogues (6a, 6h, 6m and 6u) in U937 cell lines by measuring 50% cytotoxic concentrations (CC50) and calculating selectivity indices (SIs) as a measure of toxicity in human cells.
Cytotoxicity of the 4 select Pht compounds on human cells was evaluated by assessing cell viability of the U937, a human acute monocyte leukemia cell lines by use of the MTT assay. U937 was acquired from American Type Culture Collection (ATCC, Rockville, MD) and maintained in RPMI 1640 medium supplemented with 10% fetal bovine serum, and Penicillin-streptomycin (1% v/v) (Gibco, UK) at 37 °C. Robust U937 cells at a concentration of 80,000 cells/ml were plated into 96-well plates and incubated for 24 hours. Six concentrations of the Pht compounds were added in a two-fold dilution from starting concentration of 50 to 1.56 µM in triplicate and incubated with the cells for 24 hours. This was followed by addition of 10 µL MTT solution (5 mg/mL) into each well, incubated for 4 hour at 37 °C followed by addition of 50 µL DMSO to dissolve the formazan precipitate according to manufacturer’s protocol. Aliquots were drawn from each well and color intensity was measured spectrophotometrically in an ELISA plate reader (Biotek, ELx800) at 540 nm. The cell viability ratio was calculated by the following formula: % cytotoxicity = [Mean OD of test cells] − [Mean OD of control cells]/[Mean OD of control cells] × 100. Viability counts were then plotted against corresponding drug concentrations to yield cytotoxicity (CC50) through non-linear regression (sigmoid dose-response/variable slope equation). Drug CC50 values were then used to define selectivity indices, which is a measure of drug safety in human relative to parasitic cells and was calculated as the ratio of the CC50 value determined on the U937 cells (cytotoxicity) and the IC50 value determined on parasite growth inhibition 3D7 (anti-plasmodial activity). In this study, we set SI > 2 as cut-off as an indicative of low drug cytotoxicity.

[5] = Pf3D7, asynchronous culture, read-out: IC50 (SE) µM
[6] = Plasmodium falciparum, 3D7, Pf3D7, asynchronous culture, read-out: IC50 (SE) µg/mL

For `CC(C)C[C@H](c1nc2ccccc2n1Cc1c[nH]nn1)N1C(=O)c2ccccc2C1=O` [Compound 6u], the IC50 ([1]; Pf3D7, asynchronous culture, listed as 6 u, read-out: IC50 (SE) µM) was less than 5.14 µM, the IC50 [1, 5] was 0.7 µM and the IC50 [1, 6] was 0.3 µg/mL. The IC50 [2] was 900 nM, the “interaction when combined with CQ and DHA” value [3] was “synergistic activity” and the selectivity ratio at 24 h [4] was 2.31 ± 0.76. It also gave a CC50 at 24 h [4] of 2080 ± 1600 nM.
Work on `CC[C@@H](C)[C@H](c1nc2ccccc2n1Cc1cn(-c2ccc(F)cc2)nn1)N1C(=O)c2ccccc2C1=O` [Compound 6h] yielded an IC50 ([1]; Pf3D7, asynchronous culture, listed as 6 h, read-out: IC50 (SE) µM) of less than 5.14 µM, an IC50 [1, 5] of 0.9 µM and an IC50 [1, 6] of 0.7 µg/mL. The IC50 [2] was 1300 nM, the “interaction when combined with CQ and DHA” value [3] was “synergistic activity” and the selectivity ratio at 24 h [4] was 41.2 ± 1.7. It also gave a CC50 at 24 h [4] of 28800 ± 670 nM.
